Assays:
[1] = Cytotoxicity against mouse L5178 cells assessed as reduction in cell viability after 72 hrs by MTT assay; type: functional, cell-based; conditions: L5178, 72 h
[2] = Cytotoxicity against mouse L5178B1 cells transfected with pHa MDR1/A retrovirus assessed as reduction in cell viability after 72 hrs by MTT assay; type: functional, cell-based; conditions: MDR1, 72 h
[3] = Antioxidant activity assessed as hydroxyl radical scavenging activity by measuring inhibition of damage to 2-deoxy-D-ribose after 3 mins by TBA-based Fenton reaction assay; type: functional

Compound | IC50 [1] [µM] | IC50 [2] [µM] | IC50 [3] [µM]
COC(=O)/C=C/c1ccc(O)c(O)c1 [METHYLCAFFEATE] | 104 | 113 | –
O=Cc1ccc(O)cc1 [4-HYDROXYBENZALDEHYDE] | > 150 | > 150 | –
CC(C)(C)/[N+]([O-])=C/c1ccc(S(=O)(=O)O)cc1S(=O)(=O)O | – | – | 1830

— ChEMBL document CHEMBL4422633, “Antioxidant-Inspired Drug Discovery: Antitumor Metabolite Is Formed in Situ from a Hydroxycinnamic Acid Derivative upon Free-Radical Scavenging” (J Med Chem, 2019)
